This note sets out measurements from ChEMBL document CHEMBL3507680, “University of Dundee, Gates Library screen for HepG2 cell viability”.

SMILES strings stand for the structures.

A short description of this series: Human HepG2 cell viability assay in 384 well format. Format: toxicity, cell-based. Set-up: dose 125 nL, time 70.5 hour; cytotoxicity at 70.5 h: concentration not given beside the values. Particulars: HepG2 cells, read-out: Inhibition.
Regarding `COc1ccc(C(=O)C2CCCN(Cc3cc(C)n[nH]3)C2)c(OC)c1` (stereo not drawn), the cytotoxicity at 70.5 h is -5.48%.
For the compound `CC1CN(Cc2ccccc2Cn2cccn2)CCN1C` (stereo not drawn), the cytotoxicity at 70.5 h is -0.364%.
Turning to `O=C1O[C@@H]2CN(Cc3ccsc3)C[C@@H]2N1Cc1ccccn1`, the cytotoxicity at 70.5 h worked out at 2.38%.
As for `COc1ccccc1-n1nc(-c2ccco2)n(CC(=O)NC(C)C)c1=O`, the cytotoxicity at 70.5 h is -6.38%.
The same measure for `CC(C)=CCN1C[C@@H]2CN(C(=O)c3ccc(CO)cc3)C[C@]2(C(=O)O)C1`: -12.2%; for `O=C(O)CCc1cc2n(n1)CCN(Cc1cnc(N3CCCC3)nc1)C2`: -2.38%.
As to `Cc1cc(C)nc(NCc2nnc3n2CCCCC3)n1`, the cytotoxicity at 70.5 h came out at 13.9%.
For the compound `Cc1nn(C)c2nc(NC(C)c3nnn[nH]3)sc12` (stereo not drawn), the cytotoxicity at 70.5 h stood at 11.9%.
Turning to `COc1cc(F)ccc1-c1nc2c([nH]1)c(C1CC1)nn2C`, the cytotoxicity at 70.5 h is -10.9%.
`CC1CCN(CC(=O)N(C)CCc2noc(C3CC3)n2)C1=O` (stereo not drawn): the cytotoxicity at 70.5 h was -5.01%.
`CNC(=O)[C@@H]1C[C@H](N)CN1Cc1cc2cc(C)cc(C)c2[nH]c1=O`: the cytotoxicity at 70.5 h is -13.7%.
In the case of `Cc1cnn(CC2CCN(c3cc(C(C)C)nc4ccnn34)CC2)c1`, the cytotoxicity at 70.5 h is -0.486%.
The same measure for `CC(Cc1ccc2c(c1)OCO2)c1cn(CCc2c[nH]cn2)nn1` (stereo not drawn): -6.47%; for `COCCN1CCCC2(CCN(c3nc(C)nc4c3CCC4)C2)C1=O` (stereo not drawn): -4.89%; for `CC(C)CC(=O)N1CCc2ccc(S(=O)(=O)N3CCN(C)CC3)cc2C1`: -8.6%.
`CCN1CCN(C(=O)c2[nH]c3ccccc3c2Cl)[C@H]2CS(=O)(=O)C[C@H]21`: the cytotoxicity at 70.5 h was -2.45%.
Consider `O=C1O[C@@H]2CN(Cc3ccccn3)C[C@@H]2N1CCCc1ccc(F)cc1`, for which the cytotoxicity at 70.5 h came out at 6.23%.
For the compound `Cc1cc(NCc2cc(C)oc2C(F)(F)F)n2nc(C)cc2n1`, the cytotoxicity at 70.5 h is -2.81%.
Take `CCOCCn1nc(C)cc1C(=O)N1C[C@@H](C)[C@](O)(C2CC2)C1`: the cytotoxicity at 70.5 h was -2.07%.
With `CCOCC(C)(C)NC(=O)Nc1cc(F)ccc1OC` the figure was -5.66%; with `CC(=O)NCCn1ccnc1-c1cccc(C(C)N(C)C)c1` (stereo not drawn), 5.57%.
On to `O=C(c1ccc2sccc2c1)N1CCC(C(=O)O)(n2ccnc2)CC1`, for which the cytotoxicity at 70.5 h worked out at 3.47%.
As for `c1ccn2c(C3CCCN(c4ncnc5c4CCNC5)C3)nnc2c1` (stereo not drawn), the cytotoxicity at 70.5 h came out at 8.25%.
For `Cc1cc(C(F)(F)F)nc(CNC(=O)CCC2CCCN(C)C2)n1` (stereo not drawn), the cytotoxicity at 70.5 h was -6.3%.
`c1cc2c(cc1CN1CCCC3(CCOC3)C1)OCO2` (stereo not drawn): the cytotoxicity at 70.5 h came out at 41.1%.
As for `CCc1nc(CNc2ccc(-c3nc(C4CC4)no3)cn2)no1`, the cytotoxicity at 70.5 h was -9.74%.
As to `O[C@@]1(CNCC2(Cn3cccn3)CC2)CCCN2CCCC[C@@H]21`, the cytotoxicity at 70.5 h is -11.3%.
Take `C[C@@H]1CN(c2ccc(C#N)cn2)CC[C@@]1(O)C1CCOCC1`: the cytotoxicity at 70.5 h turned out to be 27.2%.
Turning to `COCCN(C)C[C@@H]1CN(C(=O)c2sc3ccccc3c2C)C[C@@H]1CO`, the cytotoxicity at 70.5 h was -6.69%.
Turning to `CN1CCCN(c2cnn(Cc3ccc(C(C)(C)C)cc3)c(=O)c2)CC1`, the cytotoxicity at 70.5 h was -8.93%.
Consider `Cc1cc(NCc2cc3n(n2)CCCN(C(=O)C2CCC2)C3)nc(N)n1`, for which the cytotoxicity at 70.5 h was -1.07%.
With `CC(C)N(C)S(=O)(=O)c1ccc2c(c1)CCN(C(=O)c1ccccn1)C2`, the cytotoxicity at 70.5 h is 22.8%.
For the compound `CCOc1ccccc1N1CCN(c2nnc(C)o2)CC1`, the cytotoxicity at 70.5 h is -13.5%.
For `CS(=O)(=O)N1CCC(Oc2ccc(C(=O)NCCC(N)=O)cc2Cl)CC1`, the cytotoxicity at 70.5 h worked out at 6.15%.
Turning to `O=C1OCCN1CCNc1ncc2c(n1)CCN2c1ccccc1`, the cytotoxicity at 70.5 h is -6.11%.
On to `CCn1c(N)nc2cc(C(=O)NCCc3ccccc3F)cnc21`, for which the cytotoxicity at 70.5 h is -28.6%.
On to `COc1ccccc1OC1CN(C(=O)c2ccc(C(C)=O)s2)C1`, for which the cytotoxicity at 70.5 h was -10.9%.
`CC(Cn1ccnc1)NCc1n[nH]c2c1CCC2` (stereo not drawn): the cytotoxicity at 70.5 h was -20.8%.
As to `O=C(NCC(F)(F)F)c1coc(COc2cccc(F)c2)n1`, the cytotoxicity at 70.5 h worked out at 14.5%.
Take `CC(C)c1ccc(N2CCc3onc(-c4ccc(F)c(F)c4)c3C2)nn1`: the cytotoxicity at 70.5 h is -6.74%.
Consider `CN(C)C(=O)N1CCC(C(=O)N2CCOC(CC3CCCCC3)C2)CC1` (stereo not drawn), for which the cytotoxicity at 70.5 h is -0.504%.
The same measure for `CC(=O)NCCC1CCCCN1S(=O)(=O)c1cccc(Cl)c1` (stereo not drawn): 36.4%.
For the compound `O=C1CCC2(CCN(CC[C@@H](O)c3ccccc3)CC2)CN1CC1CC1`, the cytotoxicity at 70.5 h was -5.97%.
With `Cc1nc[nH]c1CNC1CC(=O)N(CCc2cccc(Cl)c2)C1` (stereo not drawn), the cytotoxicity at 70.5 h is -2.03%.
With `Cc1cc(C(=O)N2C[C@@H]3[C@@H](CN(C)CCc4ccccn4)[C@@H]3C2)c(C)o1`, the cytotoxicity at 70.5 h amounted to 25.1%.
With `CCOC(=O)N1CCC(NCC2CCN(c3cnn(C)c(=O)c3)C2)CC1` (stereo not drawn) the figure was -6.78%; with `CN(C)C(=O)c1ccc2c(c1)nc(N1CC[C@H](O)C1)n2C`, 19.5%; with `Cc1nc(C)n(CCCNc2ncnc3onc(C)c23)n1`, -3.47%.
As for `CCn1cnc(NC(=O)N2CCC(c3ccc(Cl)cc3)C2)n1` (stereo not drawn), the cytotoxicity at 70.5 h stood at 11.3%.
Take `Cc1cc(C(=O)N2C[C@@H](CN3CCOCC3)C[C@H](CO)C2)nc(C)n1`: the cytotoxicity at 70.5 h was -5.29%.
As for `Cc1cc(N2CCC(c3ncc[nH]3)CC2)c2ccccc2n1`, the cytotoxicity at 70.5 h is -7.19%.
Take `CCc1cc(NCCNC(C)=O)nc(N2CCOCC2)n1`: the cytotoxicity at 70.5 h was -13.2%.
Take `COc1ccc(C(=O)NCc2cc(N3CCOCC3)ncn2)o1`: the cytotoxicity at 70.5 h came to 17.5%.
With `CC(C)CN1C(=O)CC[C@H]2CN(C(=O)Cn3ccccc3=O)CC[C@H]21`, the cytotoxicity at 70.5 h was -0.419%.
In the case of `O=c1cc(N2CCCCC2)cnn1Cc1noc(C2CCCO2)n1` (stereo not drawn), the cytotoxicity at 70.5 h was -10.8%.
As for `O=C(c1ccnc(-n2cnnc2)c1)N1CCCC2(CCNC2)C1` (stereo not drawn), the cytotoxicity at 70.5 h was -9.32%.
On to `CCn1nc(C)cc1S(=O)(=O)N1CCC2(CCCN(C(C)C)C2=O)C1` (stereo not drawn), for which the cytotoxicity at 70.5 h was -1.6%.
`Cc1[nH]c2c(C)ccc(C)c2c1CC(=O)NCc1csc(N(C)C)n1`: the cytotoxicity at 70.5 h was determined as 17.8%.
As for `COc1cccc2c1OCC(C(=O)NCc1nc3c(s1)CCCC3)C2` (stereo not drawn), the cytotoxicity at 70.5 h amounted to 21.6%.
As to `Cc1cc(OCC(O)c2nc3c([nH]2)CC(C)(C)CNC3=O)ccc1Cl` (stereo not drawn), the cytotoxicity at 70.5 h was -12.4%.
Consider `O=c1cc(C2CCNCC2)nc(CCc2ccccn2)[nH]1`, for which the cytotoxicity at 70.5 h was -2.52%.
With `Cc1csc2c(N3CCC(NCCCc4cnn(C)c4)CC3)ncnc12`, the cytotoxicity at 70.5 h amounted to 2.87%.
In the case of `Cn1ccnc1-c1cnn(CC(=O)Nc2ccnn2C)c1`, the cytotoxicity at 70.5 h is -3%.
In the case of `O=C(Nc1cnc2n1CCCC2)c1cccc(-n2cnnc2)c1`, the cytotoxicity at 70.5 h was -16.8%.
For `Cc1cc(N2CCN(C(=O)c3cnn(C(C)C)c3)CC2)nc(N)n1`, the cytotoxicity at 70.5 h is -4.23%.
With `Cc1nn(C)c(C)c1-c1cc(-c2cnn(C)c2C2CC2)c(C#N)c(N)n1`, the cytotoxicity at 70.5 h was -12.7%.
Regarding `CC(C)c1nc(CN(C)C(=O)CNS(=O)(=O)c2cccs2)no1`, the cytotoxicity at 70.5 h was 46.6%.
Consider `NC(=O)CN1CCC(C(=O)NCC(O)c2cccc(F)c2)CC1` (stereo not drawn), for which the cytotoxicity at 70.5 h was -10.5%.
